“Also recorded” adds a separate entry of the source. [5mC] = 5-methylcytosine
Columns and labels:
[1] = molecular target: T1, DCMTase (Mus musculus, UniProt P13864); assay: Dead-end inhibition of poly(dI.dC:dI.dC) methylation by single-stranded DNA; type: biochemical
T1 construct: DCMTase was purified from mouse erythroleukemia cells as previously described; endogenous in cells; host or cells: mouse erythroleukemia (MEL) cells; enzyme purified from them
Protocol: (§1) After preincubation at room temperature for up to 10 minutes, reactions were initiated by the addition of poly(dI.dC:dI.dC) and, if indicated, inhibitor DNA or reaction products. […] Single-stranded DNA was heated to 90° C. and quick cooled on ice, prior to initiation of the reaction. Freeze-thawed DNA produced equivalent results. Incubations were at 37° C. for 60 minutes. The poly(dI.dC:dI.dC) concentrations were 2.0, 4.0, 8.0, 16, 35, 80, 160, 250, 400, 700 and 1000 pM. In some experiments, GC-box a/b was the substrate, using 100 nM DCMTase and DNA concentrations of 0.20, 0.40, 1.0, 2.0, 4.0, 8.0, 15, 23 and 35 μM. The reaction was stopped after 60 minutes by transferring 20 μL of the reaction onto a DE 81 filter paper that was processed as described (Flynn et al., 1996). The radioactivity above the background, determined from assays without added poly(dI.dC:dI.dC), was converted to initial velocities and expressed as picomoles of methyl groups transferred to poly(dI.dC:dI.dC) per hour and plotted in double reciprocal form.
The poly(dI.dC:dI.dC) concentrations were 10, 13, 20, 40 and 100 pM. The GC-box b concentrations were: diamonds, 0; circles, 0.75 μM; triangles, 1.5 μM; squares, 5.0 μM. Incubations were at 37° C. for 60 minutes.
The poly(dI.dC:dI.dC) concentrations were 1.5, 3.0, 7.5, 15 and 20 pM. The GC-box b^MET concentrations were: squares, 0; circles, 10 nM; diamonds. 20 nM; triangles, 40 nM. Incubations were at 37° C. for 60 minutes.
The GC-box b^MET concentrations were: squares, 0; circles, 20 nM; diamonds, 40 nM; triangles, 80 nM. Incubations were at 37° C. for 60 minutes.
(§2) The Michaelis-Menton equation was used for studies into DNA length contributions to catalysis using KaliedaGraph 2.1.2 (Synergy Software). For mechanistic determinations, the nomenclature used is that of Cleland, W. W., 1963a. Biochimi. Biophysi. Acta 67:104-137. All steady-state data were analyzed using regression analyses of the appropriate initial velocity equation, listed below, using the Cleland programs (Cleland, W. W., 1979, Statistical analysis of enzyme kinetic data. Methods in Enzymol. 63:103-138).
(§3) The algorithms perform a non-linear least squares fit to the entire data set. Mechanistic determinations were made by comparison of the sigma values associated with the fit to each equation. The standard errors associated with fitted parameters and graphical analysis of the experimental data scattered around the calculated best fit lines were also considered in making an assignment.

[2] = molecular target: T1, DCMTase; details: previous kinetic study (Flynn et al., 1996); cited from earlier work
[3] = system: mouse erythroleukemia (MEL) cells; assay: Anti-proliferative effects on MEL cells; type: cell-based; details: for growth rate of MEL cells: incubation with inhibitor, concentration dependent
[4] = molecular target: T1, DCMTase; assay: Product inhibition studies, steady-state; type: biochemical; parameters: key to Type of Inhibition: C: competitive; NC: noncompetitive; UC: uncompetitive inhibition
Protocol: as §1
The AdoHcy concentrations were: squares, 0; diamonds, 0.75 ,μM; circles, 1.5 μM; triangles, 3.0 μM; notched squares, 6.0 μM. Incubations were at 37° C. for 60 minutes.
For the double reciprocal plot of AdoHcy product inhibition with varying poly(dI.dC:dI.dC) concentrations (FIGS. 17A-C), reactions contained 20 nM DCMTase in 100 mM Tris pH 8.0, 10 mM EDTA, 10 mM DTT, 200 μg/mL BSA. Incubations were at 37° C. for 60 minutes. The poly(dI.dC:dI.dC) concentrations were 2.5, 5.0, 10, and 20 pM. The AdoHcy concentrations were: squares, 0; diamonds, 15 μM; circles, 30 μM.
The poly(dId^mC:dId^mC) concentrations were: squares, 0; diamonds, 5.0 pM; circles, 10 pM; triangles, 20 pM. Incubations were at 37° C. for 60 minutes. Experimental data are shown scattered around lines derived from a fit to equation 5 for noncompetitive inhibition.
200 μg/mL BSA. Incubations were at 37° C. for 60 minutes. The poly(dI.dC:dI.dC) concentrations were 20, 40, 80, 120 and 160 pM. The poly(dId^mC:dId^mC) concentrations were: squares, 0; triangles, 34 pM; circles, 45 pM; diamonds, 68, notched squares, 90 pM. Experimental data are shown scattered around lines. In FIG. 19A, lines are derived from a fit to equation 4 for competitive inhibition. In FIG. 19B, lines are derived from a fit to equation 5 for noncompetitive inhibition. Both fittings are not acceptable.
as §2, §3

[5] = molecular target: DNA cytosine-5 methyltransferase (DCMTase, Dnmt1) (Mus musculus) (UniProt P13864); assay: EMSA; details: pooled generation-5 sequences vs starting pool
[6] = molecular target: DNA cytosine-5 methyltransferase (DCMTase, Dnmt1) (Mus musculus) (UniProt P13864); assay: inhibition
[7] = molecular target: T2, DNA cytosine-5 methyltransferase (DCMTase, Dnmt1) (Mus musculus, UniProt P13864 P13864:1-1620); assay: EMSA; unit printed as mM (text indicates micromolar); 100 nM enzyme, DNA varied; Hepes pH 7.4, 10 mM EDTA, on ice, no AdoMet; details: tags: none; purified from mouse erythroleukemia (MEL) cells; label: 32P
Protocol: (§4) Gel mobility shift assays (GMSA) were performed with minor revisions to the original procedures (Fried, M., & Crothers, D. M., 1981, Equilibria and kinetics of the lac repressor-operator interactions by polyacrylamide gel electrophoresis, Nucleic Acids Res. 9:6505-6525; Garner, M. M. & Revzin, A., 1981, A gel electrophoresis method for quantifying the binding proteins to specific DNA regions: applications to components of the Escherichia coli lactose operon regulatory system, Nucleic Acids Res. 13:3047-3060). […]
(§5) Steady-state kinetic analyses of the DCMTase with the same 30 base-pair DNA substrates used in these studies indicate that Kₘ^DNA is 1000- to 50,000-fold higher (Flynn, J., et al., 1996, Murine DNA cytosine-C5 methyltransferase: Pre-steady- and steady-state kinetic analyses with regulatory DNA sequences, Biochemistry 35:7308-7315) than the DNA concentrations used to generate FIG. 2 and used by Reale et al, 1995, supra. […] Therefore, the stability of protein:DNA was determined by keeping the enzyme at a constant concentration (100 nM) and varying the amount of added DNA (Dubey & Roberts, 1992, supra).

[8] = molecular target: T2, DNA cytosine-5 methyltransferase …; assay: EMSA; unit printed as mM (text indicates micromolar); details: tags: none, purified from mouse erythroleukemia (MEL) cells
Protocol: Gel mobility shift assays (GMSA) were performed with minor revisions to the original procedures (Fried, M., & Crothers, D. M., 1981, Equilibria and kinetics of the lac repressor-operator interactions by polyacrylamide gel electrophoresis, Nucleic Acids Res. 9:6505-6525; Garner, M. M. & Revzin, A., 1981, A gel electrophoresis method for quantifying the binding proteins to specific DNA regions: applications to components of the Escherichia coli lactose operon regulatory system, Nucleic Acids Res. 13:3047-3060). All reactions were done in 100 mM Hepes pH 7.4, 10 mM EDTA, 10 mM DTT, […], 5% glycerol using the indicated P-labeled DNA and DCMTase concentrations, incubated on ice for 5 minutes and loaded on a 1×TBE(89 mM Tris-HCl pH 8.3, 89 mM boric acid, 2 mM EDTA), 6% polyacrylamide gel. Electrophoresis was done at 250 V, 9 mA for 2 hours at 4° C. and the dried gel was exposed to film overnight. The reaction conditions for buffer, temperature, incubation time, cofactor addition and gel composition have all been optimized. Only slightly better complex resolution was obtained under the listed conditions compared to a 10 minute incubation at 37° C. prior to gel loading at room temperature and containing either cofactor S-adenosyl-L-methionine, product S-adenosyl-L-homocysteine, or the AdoMet analog sinefungin. Hepes reaction buffer at pH 7.4 produced sharper banding than Tris-HCl at pH 8.0. […] Subsequent assays used a limiting and constant enzyme concentration with varying DNA concentrations.
as §5

[9] = molecular target: T2, DNA cytosine-5 methyltransferase …; assay: EMSA; unit printed as mM (text indicates micromolar); at limit of resolution; details: tags: none; purified from mouse erythroleukemia (MEL) cells
Protocol: as §4, §5

T1 sequence (P13864 whole entry): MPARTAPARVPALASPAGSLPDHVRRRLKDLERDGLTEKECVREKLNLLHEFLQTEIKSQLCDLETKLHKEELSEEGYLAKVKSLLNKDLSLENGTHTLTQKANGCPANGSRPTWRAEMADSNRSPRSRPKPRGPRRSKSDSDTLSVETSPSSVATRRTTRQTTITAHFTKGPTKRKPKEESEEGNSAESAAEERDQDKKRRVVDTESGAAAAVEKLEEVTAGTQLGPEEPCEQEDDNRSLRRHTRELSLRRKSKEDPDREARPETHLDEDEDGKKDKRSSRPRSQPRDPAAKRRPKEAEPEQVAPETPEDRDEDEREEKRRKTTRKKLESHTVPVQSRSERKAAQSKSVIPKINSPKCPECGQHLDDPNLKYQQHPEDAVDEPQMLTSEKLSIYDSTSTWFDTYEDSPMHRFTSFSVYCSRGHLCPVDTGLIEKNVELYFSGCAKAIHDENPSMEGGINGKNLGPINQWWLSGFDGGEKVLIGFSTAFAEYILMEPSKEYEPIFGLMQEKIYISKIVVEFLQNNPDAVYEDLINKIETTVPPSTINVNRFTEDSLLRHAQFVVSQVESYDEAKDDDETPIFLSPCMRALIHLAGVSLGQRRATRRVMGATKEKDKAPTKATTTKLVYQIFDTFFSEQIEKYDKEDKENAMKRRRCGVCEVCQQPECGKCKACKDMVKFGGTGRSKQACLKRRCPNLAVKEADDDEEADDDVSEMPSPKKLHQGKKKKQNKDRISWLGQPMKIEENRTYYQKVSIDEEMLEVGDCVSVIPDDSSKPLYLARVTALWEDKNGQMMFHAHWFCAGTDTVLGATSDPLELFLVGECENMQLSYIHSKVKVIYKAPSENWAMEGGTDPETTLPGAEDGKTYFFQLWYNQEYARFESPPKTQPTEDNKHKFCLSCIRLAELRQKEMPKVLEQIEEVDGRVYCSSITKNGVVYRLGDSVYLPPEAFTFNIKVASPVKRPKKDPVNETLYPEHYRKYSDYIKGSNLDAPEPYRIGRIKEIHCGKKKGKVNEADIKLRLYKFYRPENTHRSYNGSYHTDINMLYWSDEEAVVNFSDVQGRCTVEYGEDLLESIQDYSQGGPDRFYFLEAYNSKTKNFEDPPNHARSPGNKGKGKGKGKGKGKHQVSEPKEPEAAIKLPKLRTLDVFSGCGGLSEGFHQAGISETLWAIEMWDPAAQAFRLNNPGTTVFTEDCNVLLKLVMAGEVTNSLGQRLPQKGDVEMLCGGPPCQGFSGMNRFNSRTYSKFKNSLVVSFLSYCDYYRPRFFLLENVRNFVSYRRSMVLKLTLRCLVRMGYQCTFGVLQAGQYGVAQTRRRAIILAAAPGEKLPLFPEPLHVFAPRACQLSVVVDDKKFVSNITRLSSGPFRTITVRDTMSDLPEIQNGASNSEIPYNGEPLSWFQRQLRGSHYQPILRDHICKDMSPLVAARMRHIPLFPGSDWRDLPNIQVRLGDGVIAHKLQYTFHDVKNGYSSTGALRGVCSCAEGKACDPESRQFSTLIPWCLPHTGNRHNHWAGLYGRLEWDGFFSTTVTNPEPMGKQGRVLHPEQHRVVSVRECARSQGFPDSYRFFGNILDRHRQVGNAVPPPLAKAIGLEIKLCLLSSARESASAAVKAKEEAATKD
DNA cytosine-5 methyltransferase (DCMTase, Dnmt1) (Mus musculus), sequence (P13864 whole entry): as above
T2 sequence (P13864 whole entry, one chain of several): as the sequence (P13864 whole entry) above

## 5′-CTGGATCCTTGCCCCGCCCCTTGAATTCCC-3′ (DNA, backbone not given here) [GC-box b]
[1]
  Mode of Inhibition: Noncompetitive with poly(dIdC:dIdC)
  alpha factor, Kii/Kis: 1.9
[1]; poly(dI.dC:dI.dC) varied, noncompetitive fit, 15 μM AdoMet, read-out: Kii
  Ki: 6800 nM
[1]; poly(dI.dC:dI.dC) varied, noncompetitive fit, 15 μM AdoMet, read-out: Kis
  Ki: 3600 nM
[2]
  enzyme activity with single-stranded substrate: no detectable enzyme activity

## 5′-CTGGATCCTTGCCC^mCGCCCCTTGAATTCCC-3′ (DNA CTGGATCCTTGCCCCGCCCCTTGAATTCCC; DNA, [5mC] at 15, backbone not given here) [GC-box b^MET]
[1]
  Mode of Inhibition: Uncompetitive with poly(dIdC:dIdC); also recorded: Competitive with Adomet
[1]; AdoMet varied, constant 50 pM poly(dI.dC:dI.dC), competitive fit, read-out: Inhibition Constant, slope derived (Kis), equation 4
  Ki: 25 nM
[1]; Kii and Kis, read-out: the two inhibition constants in agreement
  Ki: ~20 nM
[1]; compared with Example 1 binding
  lower affinity for free enzyme in the absence of poly(dI.dC:dI.dC): 120 fold
[1]; poly(dI.dC:dI.dC) varied, uncompetitive fit, 10 μM AdoMet, read-out: Inhibition Constant, intercept derived Kii, equation 6
  Ki: 20 nM
[1]; read-out: KI, dissociation constant from the DCMTase:poly(dI.dC:dI.dC) complex
  Ki: 2.5 nM
[1]; single 5-mC substitution
  lower inhibition constant (increased inhibition) versus GC-box b: 200 fold
[3]
  growth rate of MEL cells: slows down the growth rate

## 5′-GGGAATTCAAGGGGCGGGGCAAGGATCCAG-3′ (DNA, backbone not given here) [GC-box a]
[2]
  enzyme activity with single-stranded substrate: no detectable enzyme activity

## Nc1ncnc2c1ncn2[C@@H]1O[C@H](CSCC[C@H](N)C(=O)O)[C@@H](O)[C@H]1O [AdoHcy, S-adenosyl homocysteine]
[4]; varied AdoMet, fixed poly(dIdC:dIdC), competitive, read-out: Inhibition Constant Kis
  Ki: 1400 nM
[4]; varied poly(dI.dC:dI.dC), low AdoMet concentrations, read-out: Kii, noncompetitive model
  Ki: 2500 nM
[4]; varied poly(dI.dC:dI.dC), low AdoMet concentrations, read-out: Kii, uncompetitive model
  Ki: 2000 nM
[4]; varied poly(dI.dC:dI.dC), low AdoMet concentrations, read-out: Kis, noncompetitive model
  Ki: 63000 nM
[4]; varied substrate AdoMet, fixed substrate IC
  Type of Inhibition: C
[4]; varied substrate IC, fixed substrate AdoMet
  Type of Inhibition: NC/UC

## GC-box p^MET: SEQ ID NO:10 with a phosphorothioate backbone (DNA CTGGATCCTTGCCCCGCCCCTTGAATTCCC; listed as DNA, chemistry not fully specified)
[3]; five days of incubation, 10 micromolar
  occurrence of large multi-nucleate cells among regularly sized cells: about one in fifty
[3]
  growth rate of MEL cells: slows down the growth rate

## GGGAATTCATGGATCCTAAANNNNNNNNNNNNCGNNNNNNNNNNNNTTTCAAGCTTGTGATTCCC (double strand) [generation-5 selected pool]
[5]
  binding signal (fold tighter than starting pool): 2

## poly(dI.dC:dI.dC), average 6250 or 5000 bp
[6]; substrate inhibition, 6250 bp, apparent Km 5.5 +/- 0.9 pM, true Km 36 +/- 5 pM
  Ki: 1 nM

## poly(dI.dmC:dI.dmC), fully methylated
[6]; 5mC at all M.SssI sites, Kis, noncompetitive product inhibition vs AdoMet, Kii 30 +/- 12 pM
  Ki: 0.0053 nM

B1: GC-box a/bMET (dsDNA)
DNA 1: GGGAATTCAAGGGGCGGGGCAAGGATCCAG
DNA 2: CTGGATCCTTGCCCCGCCCCTTGAATTCCC
modifications: 5mC at position 15 of strand b (hemi-methylated CpG)
[7]
  Kd: 360 nM

## GGGAATTCAAGGGGCGGGGCAAGGATCCAG (ssDNA) [GC-box a]
[8]
  Kd: 1200 nM

B2: CRE aMET/b (dsDNA)
DNA 1: GGGAATTCAAATGACGTCAAAAGGATCCAG
DNA 2: CTGGATCCTTTTGACGTCATTTGAATTCCC
modifications: 5mC at position 15 of strand a (hemi-methylated CpG)
[8]; label: 32P
  Kd: 1000 nM

## GGGAATTCAAATGACGTCAAAAGGATCCAG (ssDNA) [CRE a]
[9]
  Kd: > 50000 nM

B3: CRE a/b (dsDNA)
DNA 1: B2 DNA 1
DNA 2: B2 DNA 2
[8]; label: 32P
  Kd: 1500 nM

## CTGGATCCTTTTGACGTCATTTGAATTCCC (ssDNA) [CRE b]
[9]
  Kd: > 50000 nM
